From paper PMC8546056 (Nature Communications, 2021) come the findings set out here.

Data set [1] has as its system T1, B/Malaysia/2506/2004 NA.
T1 construct: recombinant NA secreted from High Five insect cells (baculovirus); N-terminal VASP tetramerization domain
The data set is classed as biochemical, Influenza B virus.

For data set [2], the target named is WSEIV NA (Wuhan spiny eel influenza virus, UniProt A0A2P1GNP4). The data set is classed as biochemical.
Data set [3] concerns CC(=O)N[C@H]1[C@H]([C@H](O)[C@H](O)CO)O[C@](Oc2ccc3c(C)cc(=O)oc3c2)(C(=O)O)C[C@@H]1O. Put plainly: purified protein. The conditions noted are these: 37.0 °C.

As to `CC(=O)N[C@H]1[C@H]([C@H](O)[C@H](O)CO)O[C@](Oc2ccc3c(C)cc(=O)oc3c2)(C(=O)O)C[C@@H]1O` [MUNANA, 4-methylumbelli-feryl N-acetyl-α-D-neuraminic acid], in data set [1], the Km (commonly the substrate concentration at which the rate is half of its maximum) was 137 ± 23.7 µM.
In the case of `CCOC(=O)C1=C[C@@H](OC(CC)CC)[C@H](NC(C)=O)[C@@H](N)C1` [oseltamivir], the dose-dependent inhibition entry in data set [2] is given as “The WSEIV NA was sensitive to oseltamivir”.
As for “WSEIV NA (Wuhan spiny eel influenza virus)”, the Km in data set [3] came to 118.5 ± 18.3 µM.
